# Test results reported in patent US5422341A, “Motilin-like polypeptides with gastrointestinal motor stimulating activity” (Ohmeda Pharmaceutical Products Division Inc., priority 1993, dated 1995).
# Counter-ions that a name gives are not always drawn. Square brackets hold non-standard residues; d marks the D form. Peptide text beside a SMILES is read from it. * marks the point of attachment. X3 = C#CC[N+](C)(C)[C@@H](Cc1ccccc1)C(=O)*; X5 = C=CC[N+](C)(C)[C@@H](Cc1ccccc1)C(=O)*; X1 = C[N+](C)(C)[C@@H](Cc1ccccc1)C(=O)*; NMe2Phe = CN(C)[C@@H](Cc1ccccc1)C(=O)*; NMeF = CN[C@@H](Cc1ccccc1)C(=O)O; dOrn = NCCC[C@@H](N)C(=O)O
# Experiments:
# [1] = biological target: T1, motilin receptor (Oryctolagus cuniculus, UniProt G1T803); test: Determination of motilin receptor binding affinity (displacement of [125I-Tyr7, Nle13]motilin(porcine)); design: species or system rabbit; conditions: negative logarithm of the concentration displacing 50% of [125I-Tyr7, Nle13]motilin(porcine) from rabbit antral smooth muscle membranes; read-out: pIC50 (converted)
# T1 construct: from tissue; host or cells: rabbit antral smooth muscle membranes
# T1 sequence (G1T803 1-400): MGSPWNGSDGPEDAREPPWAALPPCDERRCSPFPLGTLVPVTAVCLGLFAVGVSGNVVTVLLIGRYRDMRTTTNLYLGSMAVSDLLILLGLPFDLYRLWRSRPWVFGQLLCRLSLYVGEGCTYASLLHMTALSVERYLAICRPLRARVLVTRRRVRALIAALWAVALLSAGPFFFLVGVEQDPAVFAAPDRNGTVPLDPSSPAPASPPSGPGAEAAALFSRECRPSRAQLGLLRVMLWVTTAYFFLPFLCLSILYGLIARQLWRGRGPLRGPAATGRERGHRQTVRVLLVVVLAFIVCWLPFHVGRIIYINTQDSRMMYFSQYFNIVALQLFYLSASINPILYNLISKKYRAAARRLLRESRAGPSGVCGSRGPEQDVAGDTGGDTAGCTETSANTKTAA
# Protocol: The motilin receptor binding affinity of the peptides of this invention was determined by using the general procedure of Bormans, Peelers and Vantrappen, Regul. […] Fitting was performed using the iterative least-squares procedure of the SAS-software package (SAS Institute, Inc., Cary, N.C., USA).
# [2] = biological target: segments of rabbit duodenum (Oryctolagus cuniculus, UniProt G1T803); test: Rabbit duodenal smooth muscle strip tissue bath assay; format: cell-based; conditions: negative logarithm of the dose giving 50% of the maximal response to motilin; isotonic contraction of rabbit duodenum segments
# segments of rabbit duodenum, sequence (G1T803 1-400): as above
# Protocol: The contractile response of segments of rabbit duodenum was determined isotonically in the tissue bath according to the procedure of Depoortere et at., J. Gastrointestinal Motility, 1, 150-159 (1989). The experimental protocol consisted of an equilibration period of 1 hour; a challenge with 10^-4 M acetylcholine followed by a wash-out period; a cumulative dose-response curve of a compound with, at the end, the addition of 10^-7 M motilin; and finally 10^-4 M acetylcholine. If the final response to 10^-4 M acetylcholine differed by more than 5% from the initial response, the results were discarded. The compounds were tested in the concentration range 10^-11 to 10^-4 M. The point corresponding to 50% of the maximal response to motilin (Emax) was determined by fitting the equation E=Emax (1+EC50 /[L]) through the data points. […] The dose giving 50% of the response is expressed using its negative logarithm (pEC50).
SMILES,IC50 [1],pEC50 [2]
"CC[C@H](C)[C@H](NC(=O)[C@H](C)NC(=O)[C@@H](NC(=O)[C@@H](N)Cc1ccccc1)C(C)C)C(=O)N[C@@H](Cc1ccccc1)C(=O)N[C@H](C(=O)N[C@@H](Cc1ccc(O)cc1)C(=O)NCC(=O)N[C@@H](CCC(=O)O)C(=O)N[C@@H](CC(C)C)C(=O)N[C@@H](CCC(N)=O)C(=O)N[C@H](CCCNC(=N)N)C(=O)N[C@@H](CC(C)C)C(=O)N[C@@H](CCC(N)=O)C(=O)O)[C@@H](C)O [[Ala^3, D-Arg^ 12, Leu^13]pMOT(1-14)] (H-FVAIFTYGELQ[dR]LQ-OH)",2.14 nM,7.71
"CC[C@H](C)[C@H](NC(=O)[C@@H]1CCCN1C(=O)[C@@H](NC(=O)[C@@H](N)Cc1ccccc1)C(C)C)C(=O)N[C@@H](Cc1ccccc1)C(=O)N[C@H](C(=O)N[C@@H](Cc1ccc(O)cc1)C(=O)NCC(=O)N[C@@H](CCC(=O)O)C(=O)N[C@@H](CC(C)C)C(=O)N[C@@H](CCC(N)=O)C(=O)N[C@H](C)C(=O)N[C@@H](CC(C)C)C(=O)N[C@@H](CCC(N)=O)C(=O)O)[C@@H](C)O [[D-Ala^12, Leu^13]pMOT(1-14)] (H-FVPIFTYGELQ[dA]LQ-OH)",8.91 nM,7.29
C#CC[N+](C)(C)[C@@H](Cc1ccccc1)C(=O)N[C@H](C(=O)N1CCC[C@H]1C(=O)N[C@H](C(=O)N[C@@H](Cc1ccccc1)C(=O)N[C@H](C(=O)N[C@@H](Cc1ccc(O)cc1)C(=O)NCC(=O)N[C@@H](CCC(=O)O)C(=O)N[C@@H](CC(C)C)C(=O)N[C@@H](CCC(N)=O)C(=O)N[C@@H](CCCNC(=N)N)C(=O)N[C@@H](CC(C)C)C(=O)N[C@@H](CCC(N)=O)C(N)=O)[C@@H](C)O)[C@@H](C)CC)C(C)C (X3-VPIFTYGELQRLQ-NH2),2.14 nM,7.65
CC[C@H](C)[C@H](NC(=O)[C@@H]1CCCN1C(=O)[C@@H](NC(=O)[C@@H](N)Cc1ccccc1)C(C)C)C(=O)N[C@@H](Cc1ccccc1)C(=O)N[C@H](C(=O)N[C@@H](Cc1ccc(O)cc1)C(=O)NCC(=O)N[C@@H](CCC(=O)O)C(=O)N[C@@H](CC(C)C)C(=O)N[C@@H](CCC(N)=O)C(=O)N[C@H](CCCNC(=N)N)C(=O)N[C@@H](CC(C)C)C(=O)N[C@@H](CCCCN)C(N)=O)[C@@H](C)O (H-FVPIFTYGELQ[dR]LK-NH2),1.29 nM,7.13
CC[C@H](C)[C@H](NC(=O)[C@@H]1CCCN1C(=O)[C@@H](NC(=O)[C@H](Cc1ccccc1)N(C)C)C(C)C)C(=O)N[C@@H](Cc1ccccc1)C(=O)N[C@H](C(=O)N[C@@H](Cc1ccc(O)cc1)C(=O)NCC(=O)N[C@@H](CCC(=O)O)C(=O)N[C@@H](CC(C)C)C(=O)N[C@@H](C)C(=O)N[C@H](CCCNC(=N)N)C(=O)N[C@@H](CC(C)C)C(=O)N[C@@H](CCC(N)=O)C(N)=O)[C@@H](C)O (NMe2Phe-VPIFTYGELA[dR]LQ-NH2),1.95 nM,7.76
CC[C@H](C)[C@H](NC(=O)[C@@H]1CCCN1C(=O)[C@@H](NC(=O)[C@H](Cc1ccccc1)[N+](C)(C)C)C(C)C)C(=O)N[C@@H](Cc1ccccc1)C(=O)N[C@H](C(=O)N[C@@H](Cc1ccc(O)cc1)C(=O)NCC(=O)N[C@@H](CCC(=O)O)C(=O)N[C@@H](CC(C)C)C(=O)N[C@@H](CCC(N)=O)C(=O)N[C@@H](CCCNC(=N)N)C(=O)N[C@@H](CC(C)C)C(=O)N[C@@H](CCC(N)=O)C(N)=O)[C@@H](C)O (X1-VPIFTYGELQRLQ-NH2),2.69 nM,7.48
"CC[C@H](C)[C@H](NC(=O)[C@@H]1CCCN1C(=O)[C@@H](NC(=O)[C@H](Cc1ccccc1)[N+](C)(C)C)C(C)C)C(=O)N[C@@H](Cc1ccccc1)C(=O)N[C@H](C(=O)N[C@@H](Cc1ccc(O)cc1)C(=O)NCC(=O)N[C@@H](CCC(=O)O)C(=O)N[C@@H](CC(C)C)C(=O)N[C@@H](CCC(N)=O)C(=O)N[C@@H](CCCNC(=N)N)C(=O)N[C@@H](CC(C)C)C(=O)N[C@@H](CCC(N)=O)C(=O)O)[C@@H](C)O [[Me3 N^+ Phe^1, Leu^13]pMOT(1-14), [1-N,N,N-Trimethylphenylalanine, 13-leucine]motilin-(1-14)-peptide (Porcine) Bis-trifluoroacetate Salt] (X1-VPIFTYGELQRLQ-OH)",3.55 nM,7.69
"CC[C@H](C)[C@H](NC(=O)[C@@H]1CCCN1C(=O)[C@@H](NC(=O)[C@@H](N)Cc1ccccc1)C(C)C)C(=O)N[C@@H](Cc1ccccc1)C(=O)N[C@H](C(=O)N[C@@H](Cc1ccc(O)cc1)C(=O)NCC(=O)N[C@@H](CCC(=O)O)C(=O)N[C@@H](CC(C)C)C(=O)N[C@@H](CCC(N)=O)C(=O)N[C@H](CCCN)C(=O)N[C@@H](CC(C)C)C(=O)N[C@@H](CCC(N)=O)C(=O)O)[C@@H](C)O [[D-Orn^12, Leu^13]pMOT(1-14)] (H-FVPIFTYGELQ[dOrn]LQ-OH)",4.27 nM,6.83
"CC[C@H](C)[C@H](NC(=O)[C@@H]1CCCN1C(=O)[C@@H](NC(=O)[C@@H](N)Cc1ccccc1)C(C)C)C(=O)N[C@@H](Cc1ccccc1)C(=O)N[C@H](C(=O)N[C@@H](Cc1ccc(O)cc1)C(=O)NCC(=O)N[C@@H](CCC(=O)O)C(=O)N[C@@H](CC(C)C)C(=O)N[C@@H](CCC(N)=O)C(=O)N[C@H](CCC(N)=O)C(=O)N[C@@H](CC(C)C)C(=O)N[C@@H](CCC(N)=O)C(=O)O)[C@@H](C)O [[D-Gln^12, Leu^13]pMOT(1-14)] (H-FVPIFTYGELQ[dQ]LQ-OH)",5.62 nM,7.06
"CC[C@H](C)[C@H](NC(=O)[C@@H]1CCCN1C(=O)[C@@H](NC(=O)[C@@H](N)Cc1ccccc1)C(C)C)C(=O)N[C@@H](Cc1ccccc1)C(=O)N[C@H](C(=O)N[C@@H](Cc1ccc(O)cc1)C(=O)NCC(=O)N[C@@H](CCC(=O)O)C(=O)N[C@@H](CC(C)C)C(=O)N[C@@H](CCC(N)=O)C(=O)N[C@H](CCCNC(=N)N)C(=O)N[C@@H](CC(C)C)C(=O)N[C@@H](CCC(N)=O)C(=O)O)[C@@H](C)O [[D-Arg^13, Leu^13]pMOT(1-14), [12-D-Arginine, 13-leucine]motilin-(1-14)-peptide (Porcine) Bis-trifiuoroacetate Salt] (H-FVPIFTYGELQ[dR]LQ-OH)",0.977 nM,7.74
C=CC[N+](C)(C)[C@@H](Cc1ccccc1)C(=O)N[C@H](C(=O)N1CCC[C@H]1C(=O)N[C@H](C(=O)N[C@@H](Cc1ccccc1)C(=O)N[C@H](C(=O)N[C@@H](Cc1ccc(O)cc1)C(=O)NCC(=O)N[C@@H](CCC(=O)O)C(=O)N[C@@H](CC(C)C)C(=O)N[C@@H](CCC(N)=O)C(=O)N[C@@H](CCCNC(=N)N)C(=O)N[C@@H](CC(C)C)C(=O)N[C@@H](CCC(N)=O)C(N)=O)[C@@H](C)O)[C@@H](C)CC)C(C)C (X5-VPIFTYGELQRLQ-NH2),1.74 nM,7.47
CC[C@H](C)[C@H](NC(=O)[C@H](C)NC(=O)[C@@H](NC(=O)[C@H](Cc1ccccc1)NC)C(C)C)C(=O)N[C@@H](Cc1ccccc1)C(=O)N[C@H](C(=O)N[C@@H](Cc1ccc(O)cc1)C(=O)NCC(=O)N[C@@H](CCC(=O)O)C(=O)N[C@@H](CC(C)C)C(=O)N[C@@H](C)C(=O)N[C@H](CCCNC(=N)N)C(=O)N[C@@H](CC(C)C)C(=O)N[C@H](CCC(N)=O)C(N)=O)[C@@H](C)O (H-[NMeF]VAIFTYGELA[dR]L[dQ]-NH2),0.724 nM,7.32
